According to ChEMBL document CHEMBL3400015, “Tertiary amides of Salinomycin: A new group of antibacterial agents against Bacillus anthracis and methicillin-resistant Staphylococcus epidermidis” (Bioorg Med Chem Lett, 2015):
≈ marks a conversion by molar mass, not a printed value.

What was measured:
Type in all cases: functional
[1] = system: Staphylococcus aureus; test: Bactericidal activity against Staphylococcus aureus ATCC 25923 after 24 hrs; details: ATCC 25923, 24 h, read-out: MBC99.9
[2] = system: Staphylococcus epidermidis; test: Antimicrobial activity against methicillin-resistant Staphylococcus epidermidis isolate 460/11 after 18 hrs by twofold serial broth dilution method; details: isolate 460/11, 18 h
[3] = system: Staphylococcus epidermidis; test: Antimicrobial activity against methicillin-resistant Staphylococcus epidermidis isolate 458/11 after 18 hrs by twofold serial broth dilution method; details: isolate 458/11, 18 h
[4] = system: Staphylococcus epidermidis; test: Antimicrobial activity against methicillin-resistant Staphylococcus epidermidis isolate 470/11 after 18 hrs by twofold serial broth dilution method; details: isolate 470/11, 18 h
[5] = system: Staphylococcus epidermidis; test: Antimicrobial activity against methicillin-resistant Staphylococcus epidermidis isolate 404/10 after 18 hrs by twofold serial broth dilution method; details: isolate 404/10, 18 h
[6] = system: Staphylococcus epidermidis; test: Bactericidal activity against methicillin-resistant Staphylococcus epidermidis isolate 424/10 after 24 hrs; details: isolate 424/10, 24 h, read-out: MBC99.9
[7] = system: Staphylococcus epidermidis; test: Bactericidal activity against methicillin-resistant Staphylococcus epidermidis isolate 404/10 after 24 hrs; details: isolate 404/10, 24 h, read-out: MBC99.9
[8] = system: Staphylococcus epidermidis; test: Bactericidal activity against methicillin-resistant Staphylococcus epidermidis isolate 409/10 after 24 hrs; details: isolate 409/10, 24 h, read-out: MBC99.9
[9] = system: Staphylococcus epidermidis; test: Bactericidal activity against methicillin-resistant Staphylococcus epidermidis isolate 460/11 after 24 hrs; details: isolate 460/11, 24 h, read-out: MBC99.9
[10] = system: Staphylococcus aureus; test: Antimicrobial activity against Staphylococcus aureus NCTC 4163 after 18 hrs by twofold serial broth dilution method; details: NCTC 4163, 18 h
[11] = system: Staphylococcus epidermidis; test: Bactericidal activity against methicillin-resistant Staphylococcus epidermidis isolate 459/11 after 24 hrs; details: isolate 459/11, 24 h, read-out: MBC99.9
[12] = system: Escherichia coli; test: Bactericidal activity against Escherichia coli NCTC 8196 after 24 hrs; details: NCTC 8196, 24 h, read-out: MBC99.9
[13] = system: Staphylococcus epidermidis; test: Bactericidal activity against methicillin-resistant Staphylococcus epidermidis isolate 461/11 after 24 hrs; details: isolate 461/11, 24 h, read-out: MBC99.9
[14] = system: Staphylococcus epidermidis; test: Antimicrobial activity against methicillin-resistant Staphylococcus epidermidis isolate 461/11 after 18 hrs by twofold serial broth dilution method; details: isolate 461/11, 18 h
[15] = system: Staphylococcus aureus; test: Bactericidal activity against Staphylococcus aureus […] after 24 hrs; details: read-out: MBC99.9
[16] = system: Staphylococcus epidermidis; test: Antimicrobial activity against methicillin-resistant Staphylococcus epidermidis isolate 459/11 after 18 hrs by twofold serial broth dilution method; details: isolate 459/11, 18 h
[17] = system: Staphylococcus aureus; test: Bactericidal activity against Staphylococcus aureus ATCC 6538 after 24 hrs; details: ATCC 6538, 24 h, read-out: MBC99.9
[18] = system: Pseudomonas aeruginosa; test: Antimicrobial activity against Pseudomonas aeruginosa ATCC 27853 after 18 hrs by twofold serial broth dilution method; details: ATCC 27853, 18 h
[19] = system: Staphylococcus epidermidis; test: Bactericidal activity against methicillin-resistant Staphylococcus epidermidis isolate 422/10 after 24 hrs; details: isolate 422/10, 24 h, read-out: MBC99.9
[20] = system: Escherichia coli; test: Antimicrobial activity against Escherichia coli ATCC 25922 after 18 hrs by twofold serial broth dilution method; details: ATCC 25922, 18 h
[21] = system: Staphylococcus epidermidis; test: Antimicrobial activity against Staphylococcus epidermidis ATCC 35984 after 18 hrs by twofold serial broth dilution method; details: ATCC 35984, 18 h
[22] = system: Staphylococcus aureus; test: Bactericidal activity against Staphylococcus aureus NCTC 4163 after 24 hrs; details: NCTC 4163, 24 h, read-out: MBC99.9
[23] = system: Staphylococcus epidermidis; test: Bactericidal activity against methicillin-resistant Staphylococcus epidermidis isolate 457/11 after 24 hrs; details: isolate 457/11, 24 h, read-out: MBC99.9
[24] = system: Pseudomonas aeruginosa; test: Bactericidal activity against Pseudomonas aeruginosa NCTC 6749 after 24 hrs; details: NCTC 6749, 24 h, read-out: MBC99.9
[25] = system: Escherichia coli; test: Bactericidal activity against Escherichia coli ATCC 10538 after 24 hrs; details: ATCC 10538, 24 h, read-out: MBC99.9
[26] = system: Staphylococcus epidermidis; test: Antimicrobial activity against Staphylococcus epidermidis ATCC 12228 after 18 hrs by twofold serial broth dilution method; details: ATCC 12228, 18 h
[27] = system: Staphylococcus epidermidis; test: Antimicrobial activity against methicillin-resistant Staphylococcus epidermidis isolate 403/10 after 18 hrs by twofold serial broth dilution method; details: isolate 403/10, 18 h
[28] = system: Staphylococcus epidermidis; test: Bactericidal activity against methicillin-resistant Staphylococcus epidermidis isolate 455/11 after 24 hrs; details: isolate 455/11, 24 h, read-out: MBC99.9
[29] = system: Escherichia coli; test: Antimicrobial activity against Escherichia coli ATCC 10538 after 18 hrs by twofold serial broth dilution method; details: ATCC 10538, 18 h
[30] = system: Staphylococcus epidermidis; test: Antimicrobial activity against methicillin-resistant Staphylococcus epidermidis isolate 407/10 after 18 hrs by twofold serial broth dilution method; details: isolate 407/10, 18 h
[31] = system: Staphylococcus epidermidis; test: Antimicrobial activity against methicillin-resistant Staphylococcus epidermidis isolate 469/11 after 18 hrs by twofold serial broth dilution method; details: isolate 469/11, 18 h
[32] = system: Escherichia coli; test: Bactericidal activity against Escherichia coli ATCC 25922 after 24 hrs; details: ATCC 25922, 24 h, read-out: MBC99.9
[33] = system: Staphylococcus epidermidis; test: Bactericidal activity against methicillin-resistant Staphylococcus epidermidis isolate 407/10 after 24 hrs; details: isolate 407/10, 24 h, read-out: MBC99.9
[34] = system: Staphylococcus epidermidis; test: Bactericidal activity against methicillin-resistant Staphylococcus epidermidis isolate 405/10 after 24 hrs; details: isolate 405/10, 24 h, read-out: MBC99.9
[35] = system: Staphylococcus epidermidis; test: Bactericidal activity against methicillin-resistant Staphylococcus epidermidis isolate 403/10 after 24 hrs; details: isolate 403/10, 24 h, read-out: MBC99.9
[36] = system: Staphylococcus epidermidis; test: Bactericidal activity against methicillin-resistant Staphylococcus epidermidis isolate 454/11 after 24 hrs; details: isolate 454/11, 24 h, read-out: MBC99.9
[37] = system: Pseudomonas aeruginosa; test: Bactericidal activity against Pseudomonas aeruginosa ATCC 27853 after 24 hrs; details: ATCC 27853, 24 h, read-out: MBC99.9
[38] = system: Bacillus anthracis; test: Antimicrobial activity against Bacillus anthracis 34F2 after 18 hrs by twofold serial broth dilution method; details: 34F2, 18 h
[39] = system: Pseudomonas aeruginosa; test: Antimicrobial activity against Pseudomonas aeruginosa ATCC 15442 after 18 hrs by twofold serial broth dilution method; details: ATCC 15442, 18 h
[40] = system: Staphylococcus epidermidis; test: Antimicrobial activity against methicillin-resistant Staphylococcus epidermidis isolate 409/10 after 18 hrs by twofold serial broth dilution method; details: isolate 409/10, 18 h
[41] = system: Staphylococcus epidermidis; test: Bactericidal activity against Staphylococcus epidermidis ATCC 12228 after 24 hrs; details: ATCC 12228, 24 h, read-out: MBC99.9

CCCCCCCCN(CCCCCCCC)C(=O)[C@H](CC)[C@H]1CC[C@H](C)[C@H]([C@@H](C)[C@H](O)[C@H](C)C(=O)[C@H](CC)[C@H]2O[C@]3(C=C[C@@H](O)[C@]4(CC[C@@](C)([C@H]5CC[C@](O)(CC)[C@H](C)O5)O4)O3)[C@H](C)C[C@@H]2C)O1
MBC [1]: > 256 µg/mL
MIC [2]: 256 µg/mL (≈ 263 µM)
MIC [3]: 256 µg/mL (≈ 263 µM)
MIC [4]: 256 µg/mL (≈ 263 µM)
MIC [5]: 256 µg/mL (≈ 263 µM)
MBC [6]: > 256 µg/mL
MBC [7]: > 256 µg/mL
MBC [8]: > 256 µg/mL
MBC [9]: > 256 µg/mL
MIC [10]: 256 µg/mL (≈ 263 µM)
MBC [11]: > 256 µg/mL
MBC [12]: > 256 µg/mL
MBC [13]: > 256 µg/mL
MIC [14]: > 256 µg/mL
MBC [15]: > 256 µg/mL
MIC [16]: 256 µg/mL (≈ 263 µM)
MBC [17]: > 256 µg/mL
MIC [18]: > 256 µg/mL
MBC [19]: > 256 µg/mL
MIC [20]: > 256 µg/mL
MIC [21]: 128 µg/mL (≈ 131 µM)
MBC [22]: > 256 µg/mL
MBC [23]: > 256 µg/mL
MBC [24]: > 256 µg/mL
MBC [25]: > 256 µg/mL
MIC [26]: 128 µg/mL (≈ 131 µM)
MIC [27]: 256 µg/mL (≈ 263 µM)
MBC [28]: > 256 µg/mL
MIC [29]: > 256 µg/mL
MIC [30]: 256 µg/mL (≈ 263 µM)
MIC [31]: 256 µg/mL (≈ 263 µM)
MBC [32]: > 256 µg/mL
MBC [33]: > 256 µg/mL
MBC [34]: > 256 µg/mL
MBC [35]: > 256 µg/mL
MBC [36]: > 256 µg/mL
MBC [37]: > 256 µg/mL
MIC [38]: 64 µg/mL (≈ 65.7 µM)
MIC [39]: > 256 µg/mL
MIC [40]: > 256 µg/mL
MBC [41]: > 256 µg/mL

CC[C@@H](C(=O)[C@@H](C)[C@@H](O)[C@H](C)[C@@H]1O[C@@H]([C@@H](CC)C(=O)N2CCOCC2)CC[C@@H]1C)[C@H]1O[C@]2(C=C[C@@H](O)[C@]3(CC[C@@](C)([C@H]4CC[C@](O)(CC)[C@H](C)O4)O3)O2)[C@H](C)C[C@@H]1C
MBC [1]: > 256 µg/mL
MIC [2]: 256 µg/mL (≈ 312 µM)
MIC [3]: 256 µg/mL (≈ 312 µM)
MIC [4]: 256 µg/mL (≈ 312 µM)
MIC [5]: 256 µg/mL (≈ 312 µM)
MBC [6]: > 256 µg/mL
MBC [7]: > 256 µg/mL
MBC [8]: > 256 µg/mL
MBC [9]: > 256 µg/mL
MIC [10]: 256 µg/mL (≈ 312 µM)
MBC [11]: > 256 µg/mL
MBC [12]: > 256 µg/mL
MBC [13]: > 256 µg/mL
MIC [14]: > 256 µg/mL
MBC [15]: > 256 µg/mL
MIC [16]: 128 µg/mL (≈ 156 µM)
MBC [17]: > 256 µg/mL
MIC [18]: 256 µg/mL (≈ 312 µM)
MBC [19]: > 256 µg/mL
MIC [20]: 256 µg/mL (≈ 312 µM)
MIC [21]: 128 µg/mL (≈ 156 µM)
MBC [22]: > 256 µg/mL
MBC [23]: > 256 µg/mL
MBC [24]: > 256 µg/mL
MBC [25]: > 256 µg/mL
MIC [26]: 128 µg/mL (≈ 156 µM)
MIC [27]: 256 µg/mL (≈ 312 µM)
MBC [28]: > 256 µg/mL
MIC [29]: 256 µg/mL (≈ 312 µM)
MIC [30]: > 256 µg/mL
MIC [31]: > 256 µg/mL
MBC [32]: > 256 µg/mL
MBC [33]: > 256 µg/mL
MBC [34]: > 256 µg/mL
MBC [35]: > 256 µg/mL
MBC [36]: > 256 µg/mL
MBC [37]: > 256 µg/mL
MIC [38]: 128 µg/mL (≈ 156 µM)
MIC [39]: 256 µg/mL (≈ 312 µM)
MIC [40]: 256 µg/mL (≈ 312 µM)
MBC [41]: > 256 µg/mL
